Assay: in vitro
Settings: human, hela cells, % viability

Row | Compound | viability at 28.5 h, 10 µM [%]
1 | Nc1nc(COc2ccc(F)cc2)nc(N2CCOCC2)n1 [CBK288183] | 91.5
2 | N#Cc1cc(SCCC(=O)O)c(N2CCOCC2)cc1C#N [CBK269212] | 96.3
3 | Cc1nn(C)cc1S(=O)(=O)NCC1(c2ccccc2)CCCC1 [CBK282766] | 85.9
4 | COc1ccc(C(=O)NCCCN(C)C)cc1Nc1cncc(-c2ccc(O)cc2)n1 [CBK126938T] | 95
5 | O=[N+]([O-])c1ccc(S(=O)(=O)N2CCC3(CC2)OCCO3)cc1 [CBK269303] | 97.5
6 | Cc1nc(S)[nH]c(=O)c1Cc1ccc(F)cc1 [CBK288456] | 107
7 | Cc1cc(OCC(=O)Nc2ccccc2N2CCN(S(C)(=O)=O)CC2)ccc1Cl [CBK269410] | 103
8 | N=C(N)SCP(=O)(c1ccccc1)c1ccccc1 [CBK260990] | 99.3
9 | Nc1ccc(Cl)cc1C(O)(CCCN1CCCCC1)c1ccccc1 (stereo not shown) [CBK023107] | 98.1
10 | NS(=O)(=O)c1cccnc1NCc1ccccc1 [CBK288448] | 85.7
11 | O=C(O)CCSCc1ccc([N+](=O)[O-])cc1 [CBK262359] | 103
12 | CC(C)c1ccc(S(=O)(=O)Nc2ccon2)cc1 [CBK044584] | 115
13 | O=C(O)CCCCc1nn(-c2ccc(Cl)c(Cl)c2)c2c1CCC2 [CBK012529] | 97.5
14 | Cc1ccc(C(=O)C(OC(=O)c2cc(O)nc3ccccc23)c2ccccc2)cc1C (stereo not shown) [CBK265515] | 90.9
15 | CC(Cn1cccn1)C(=O)N1CCc2sccc2C1C (stereo not shown) [CBK282074] | 103
16 | COc1ccccc1CN(C(=O)Nc1ccc(S(C)(=O)=O)cc1)C1CC1 [CBK305787] | 90.9
17 | CCCOc1nccnc1N1CCNCC1 [CBK001839G] | 82.4
18 | COc1cc(-c2cn3ccnc3c(NC3CC3)n2)cc(OC)c1OC [CBK066184] | 90
19 | CC(Oc1cc(Cl)ccc1Cl)c1nnc(S)n1C (stereo not shown) [CBK288376] | 84.8
20 | CCCc1c(C(=O)N2CCN(c3ncccn3)CC2)cnn1-c1cc(Cl)cc(Cl)c1 [CBK107383] | 102
21 | CC(C)CC(=O)N1CCCn2nc(-c3ccncc3)cc2C1 [CBK288606] | 94.7
22 | Cn1cc(CC(=O)NCc2ccc(OC3CCNCC3)cc2)c2ccccc21 [CBK028430T] | 92.8

Row | Compound | viability at 28.5 h, 10 µM [%]
23 | Cc1cc(C)nc(-n2ncc(C#N)c2NC(=O)c2ccccc2)n1 [CBK288135] | 111
24 | COc1cc(CNc2nnn[nH]2)cc(Cl)c1OC [CBK288087] | 97.8
25 | Cc1ccc(CNC(=O)C2CC(=O)N(c3cccc(C)c3C)C2)cc1 (stereo not shown) [CBK295183] | 97.5
26 | Cc1ccnc(NC(=O)C2CCCN(C(=O)OC(C)(C)C)C2)c1 (stereo not shown) [CBK305875] | 82.7
27 | O=S(=O)(Nc1cc(O[C@@H]2CCNC2)c2occc2c1)c1cc(F)c(Br)cc1F [CBK073943C] | 92
28 | Cc1nc(CN2CCCC(NCc3ccc4ccccc4c3)C2)no1 (stereo not shown) [CBK305160] | 96.5
29 | O=C(NCC1(c2cccc(Br)c2)CCOCC1)C1CC(O)CN1 (stereo not shown) [CBK304257] | 95.9
30 | Cc1ccccc1C1NC(=O)NC2=C1C(=O)N(C)C2 (stereo not shown) [CBK288026] | 96.8
31 | CCn1c(-c2ccc3c(c2)OCCO3)cnc1SCC(=O)c1cc(C)[nH]c1C [CBK297880] | 89.4
32 | O=C(Nc1ccc(N2CCN(C(=O)c3ccco3)CC2)cc1)c1cc([N+](=O)[O-])ccc1N1CCOCC1 [CBK269052] | 91.6
33 | CC(=O)c1cc(C(=O)Nc2cnn(Cc3ccc(F)cc3)c2)cs1 [CBK282528] | 104
34 | Cn1ccnc1C1(O)CCN(C(=O)c2cccc(F)c2)CC1 [CBK283543] | 107
35 | COc1ccc(C)cc1NC(=O)N1CCC2(CC1)CC(=O)c1ccc(C)cc1O2 [CBK166520] | 91.4
36 | CNS(=O)(=O)c1cc(C(=O)N2CCN(c3ccccc3)CC2)ccc1OC [CBK270192] | 88.9
37 | CC(NS(=O)(=O)c1ccccc1)C(=O)Nc1ccc(S(N)(=O)=O)cc1 (stereo not shown) [CBK266929] | 110
38 | O=C(O)CCC(=O)N1CCN(Cc2ccc(Cl)cc2)CC1 [CBK286852] | 90
39 | Cn1c(=O)[nH]c2c(nc(-c3ccccc3)n2C)c1=O [CBK287855] | 78.2
40 | COc1ccc(C(=O)Nc2nnc(C3=COCCO3)o2)cc1 [CBK287409] | 93.9
41 | O=C(c1cccnc1)N1CCC(c2cccc(Cc3ccc(C(F)(F)F)cc3)n2)CC1 [CBK286222] | 95.4
42 | NC(=O)CN1CC2(CCN(CCS(=O)(=O)c3ccccc3)CC2)c2ccccc21 [CBK126786] | 103
43 | NC(=O)CSc1nnc(SCc2cccc3ccccc23)s1 [CBK266150] | 106
44 | CCOC(=O)c1[nH]c2ccccc2c1NS(=O)(=O)Cc1ccccc1 [CBK047413] | 93.1

Row | Compound | viability at 28.5 h, 10 µM [%]
45 | O=C(NCC(c1ccccc1)N1CCOCC1)c1cnc(-c2ccc(F)cc2)c(-c2ccco2)c1 (stereo not shown) [CBK037531] | 95.7
46 | CCC(=O)NC(c1ccc(C)cc1)c1cc([N+](=O)[O-])c2cccnc2c1O (stereo not shown) [CBK265048] | 121
47 | COc1cccc2cc(C(=O)NCc3ccc(Cl)c(Cl)c3)oc12 [CBK149795] | 85.2
48 | COc1cccc(CN2CCCC(NC(=O)c3cnn(C(C)C)c3)C2)c1 (stereo not shown) [CBK307477] | 91.3
49 | O=C(c1cnc2ccccc2c1)N1CCC(F)CC1 [CBK200273] | 102
50 | Cc1ccc(C2=CCN(CC(N)=O)CC2)o1 [CBK283570] | 98.3
51 | Cc1ccc(C)c(NC(=S)NCCc2ccc(S(N)(=O)=O)cc2)c1 [CBK264879] | 100
52 | CC(NC(=O)N1CCCCC1CO)c1ccccc1 (stereo not shown) [CBK155988] | 93.1
53 | Cc1sc(NC(=O)c2cc(-c3ccncc3)nc3ccc(Cl)cc23)c(C#N)c1C [CBK267742] | 87.7
54 | Cc1nn(CCC(=O)NC(C)Cc2ccccn2)c(C)c1Cl (stereo not shown) [CBK281419] | 97.1
55 | COc1ccc2nc(NCc3ccccc3)sc2c1 [CBK287485] | 66.8
56 | COc1ccc2cc(CNC(Cc3ccccc3)c3ccccc3)c(Cl)nc2c1 (stereo not shown) [CBK295357] | 93.3
57 | CCCc1n[nH]c(-c2ccccc2Cl)c1C(=O)OCC [CBK113547] | 107
58 | COc1ccc(-c2nccnc2NCC2CC2)cc1 [CBK038048] | 95.7
59 | CCN(CC)S(=O)(=O)c1cc(C(=O)NC2CCCCC2)ccc1Br [CBK058354] | 96.3
60 | CC(C)(C)OC(=O)N1CCN(c2ccc(Cl)nn2)CC1 [CBK113381] | 96.2
61 | O=C(Cc1ccc(Cl)cc1Cl)NCCc1c[nH]c2ccc(Cl)cc12 [CBK159744] | 104
62 | CN(C)CCN(C)C(=O)c1ccc(-c2cccc(Cl)c2Cl)nc1N(C)C [CBK106082] | 94.1
63 | O=C(O)/C=C/c1cn([C@H]2C[C@@H](O)[C@@H](CO)O2)c(=O)[nH]c1=O [CBK201174] | 92.9
64 | COC(=O)c1ccc(-c2ccc(Cl)c(Cl)c2)nc1 [CBK149231] | 101
65 | COc1ccccc1C(=O)CN1CCC2(CC1)OCCc1c2[nH]c2ccc(F)cc12 [CBK040238] | 97.6
66 | N#CCCCN1CCC(Oc2cncc(OCCN3CCOCC3)n2)C1 (stereo not shown) [CBK084495] | 103

Row | Compound | viability at 28.5 h, 10 µM [%]
67 | Cc1cc(C(=O)NCc2cccnc2N(C)C2CCCCC2)[nH]n1 [CBK306668] | 104
68 | O=C(c1ccccc1)c1ccc(CNC(=O)C2(c3ccccc3)CCCC2)cc1 [CBK161526] | 87.6
69 | CCCNC(=O)Cn1nc(C)n2c(cc3sccc32)c1=O [CBK284020] | 102
70 | O=C1c2ccccc2C(=O)N1CCCc1nn2c(-c3cccnc3)nnc2s1 [CBK270140] | 80.2
71 | CCOC(=O)C1CCCN(C(=O)Cn2ncc(Cl)c(Cl)c2=O)C1 (stereo not shown) [CBK305573] | 47.7
72 | COc1ccc(Cn2nc(-c3nc(C)no3)c3ccccc32)cc1 [CBK105834] | 90.7
73 | Cc1nn(Cc2cccc(Oc3ccccc3)c2)c(C)c1NC(=O)c1nc2ncccn2n1 [CBK267632] | 89
74 | CS(=O)(=O)c1nnn(CC#N)n1 [CBK026075] | 90
75 | COc1cc(-c2cncc(NCCc3ccncc3)n2)cc(OC)c1OC [CBK065405] | 94.4
76 | COCCN1CC(CNC(=O)c2cccc(F)c2O)CC1=O (stereo not shown) [CBK304386] | 107
77 | Cc1nc(C2CCCCN2C(=O)COc2ccccc2)ncc1C(=O)Nc1ccc(F)cc1 (stereo not shown) [CBK285871] | 98.6
78 | Cn1c(N2CC[C@H](O)C2)nc2cc(C(=O)NCCc3cscn3)ccc21 [CBK306824] | 88.5
79 | COCCNc1cc(-c2ccco2)ncn1 [CBK090796] | 92.5
80 | CC(NC(=O)C1CCN(Cc2ccccn2)CC1)c1cccc2ccccc12 (stereo not shown) [CBK148662] | 98.2
81 | CC(=O)c1ccccc1OCCOCCN1CCCC(C)C1 (stereo not shown) [CBK269625C] | 106
82 | N#CC(c1ccc(O)cc1)N1CCCCC1 (stereo not shown) [CBK028556] | 94.4
83 | Cc1cc2c(cc1Cl)C(=O)CC1(CCN(C(=O)C3CC(=O)OC3(C)C)CC1)O2 (stereo not shown) [CBK156514] | 94.8
84 | O=C(Nc1sc2c(c1C(=O)O)CCCC2)c1cc2ccccc2o1 [CBK264551] | 91
85 | O=C(NCc1ccc(Cl)cc1)C1CCCN1c1nc(O)cc(C(F)(F)F)n1 (stereo not shown) [CBK003706] | 115

Same assay, conditions: human, hela cells, % viability, bulk resorufin, single well

Row | Compound | viability at 28.5 h, 10 µM [%]
86 | COc1ccc(-c2ccc3c(c2)COC2(CCNCC2)O3)cn1 [CBK060913] | 81
87 | c1cc(-c2ccc3c(c2)COC2(CCNCC2)O3)ccn1 [CBK060867] | 99
88 | CC(=O)c1c(C)[nH]c(C(=O)N2CCC(C#N)(c3ccccc3)CC2)c1C [CBK091404] | 93.3
89 | c1ccc2cc(-c3ccc4c(c3)COC3(CCNCC3)O4)ccc2c1 [CBK060949] | 88
90 | O=C(Nc1ccc2c(c1)COC1(CCNCC1)O2)c1cc2cc(Cl)ccc2[nH]1 [CBK091529T] | 71.3
91 | O=C(O)CCCNC(=O)C(O)(c1ccccc1)c1ccccc1 [CBK269156] | 95.5

From publication PMC12040169 (PLOS Biology, 2025)
